Legend:
[1] = test system: control (2167-9/2160-154 unselected) plants; assay: Whole plant sethoxydim spray, greenhouse, control regenerated plants; format: in vivo, maize; details: greenhouse-grown regenerated plants, sprayed
Description: (§1) Groups of eight control (2167-9/2160-154 unselected) and eight S-2 plants were sprayed with either 0.0, 0.01, 0.05, 0.11, 0.22 or 0.44 kg/ha sethoxydim to determine whole plant sethoxydim-tolerance of greenhouse-grown plants. Control plants were killed by 0.05 kg/ha or more sethoxydim.

[2] = test system: plants regenerated from the S-2 cell line; assay: Whole plant sethoxydim spray, greenhouse, S-2 regenerated plants; format: in vivo, maize
Description: as §1

[3] = test system: progeny of 2167-9/2160-154 control plants; assay: Sethoxydim treatment of progeny seedlings, greenhouse; format: in vivo, maize; details: seedlings treated at 3-4 leaf stage, rated two weeks after treatment
Experimental: Seeds obtained by the crossing procedure described above were viable and germinated normally. Seeds from thirty S-2 selfed plants and fifteen 2167-9/2160-154 control plants were planted in 25×50 cm trays of soil (28 seeds from each plant in one tray) and grown in the greenhouse. Seedlings at the 3-4 leaf stage were treated with 0.1, 0.44, and 1.1 kg/ha sethoxydim and evaluated for visual herbicide damage and shoot height. Based on visual rating of herbicide damage two weeks after treatment, selfed progeny of S-2 plants segregated approximately 1:2:1 for healthy, uninjured plants: to plants showing partial injury: to dead plants, respectively, at 0.44 and 1.1 kg/ha sethoxydim treatments. All control progeny of 2167-9/2160-154 control plants were killed by 0.1 kg/ha and greater levels of sethoxydim. […] Similar tests were conducted on progeny of S-2 plants crossed to the other inbreds. In all cases, these test cross progeny treated with 0.44 kg/ha sethoxydim segregated 1:1 for growing shoots versus dead shoots whether S-2 plants were used as male or female parents. […] In all cases, control plants crossed to the other inbreds were killed and therefore sethoxydim-sensitive.

ACCase of S-2 tissue = ACCase of S-2 tissue (Zea mays, UniProt Q41743); assay: ACCase activity, herbicide inhibition, S-2 tissue; format: biochemical, maize; details: on concentration basis
Experimental: Maize chloroplasts, isolated as described above, were suspended in buffer C (0.1 M Tricine-KOH, pH 8.0; 0.3 M glycerol, and 1 mM DTT) and homogenized in a glass tissue homogenizer. The disrupted chloroplast fraction was centrifuged at 16,000 g for 15 minutes. The supernatant was desalted on a Sephadex G-25 column (1.5×5 cm equilibrated with 0.1 M Tricine-KOH, pH 8.0; and 0.3 M glycerol) and assayed directly. ACCase activity (B. J. Nikolau et al., Arch. Biochem. Biophys., 211, 605-612 (1981)) was assayed at 30° C. in a 0.2 ml volume which contained 1 mM ATP, 3 mM acetyl coenzyme A, 2.5 mM MgCl2, 50 mM KCl, 0.5 mM DTT, and 15 mM [^14C]NaHCO3 (0.17 mCi/mmol). Reactions were initiated by addition of acetyl coenzyme A and stopped by addition of 25 μl of 12 N HCl. Product formation was determined by the radioactivity found in an acid stable fraction by liquid scintillation spectrometry. Enzyme activity was linear for 15 minutes.
Assays were conducted to determine if ACCase extracted from cell line S-2 was altered with respect to herbicide activity. ACCase activity of control tissue was 50% inhibited either by 1.5 μM sethoxydim, or by 0.25 μM haloxyfop. ACCase activity of S-2 tissue was inhibited 50% either by 70 μM sethoxydim, or by 1.8 μM haloxyfop, indicating at least 40-fold and 7-fold decreases in herbicide sensitivity on concentration basis, respectively.

Compound | Rate that killed control plants [1] [kg/ha] | Survival of S-2 plants ([2]; 0.44 kg/ha sethoxydim) | Shoot height of regenerated S-2 plants ([2]; 14 days after treatment with 0.44 kg/ha sethoxydim) | Fold more tolerance of S-2 plants than control ([2]; whole plant spray) | Rate that killed all control progeny [3] [kg/ha] | Fold decrease in herbicide sensitivity of ACCase, S-2 versus control (ACCase of S-2 tissue) [fold]
CCCC(=NOCC)C1=C(O)CC(CC(C)SCC)CC1=O (stereo not drawn) [Sethoxydim, 2-[1-(ethoxyimino)-butyl]-5-[2-(ethylthio)propyl]-3-hydroxy-2-cyclohexen-1-one] | ≥ 0.05 | survived | only slightly reduced | at least 20 fold | ≥ 0.1 | –
CC(Oc1ccc(Oc2ncc(C(F)(F)F)cc2Cl)cc1)C(=O)O (stereo not drawn) [Haloxyfop, 2-[4-[[3-chloro-5-(trifluoromethyl)-2-pyridinyl]oxy]phenoxy]-propanoic acid] | – | – | – | – | – | ≥ 7
